Assays:
Assay type in all cases: cell-based
[1] = system: Staphylococcus aureus NRS384 (MRSA); test: Broth microdilution MIC, S. aureus NRS384 (MRSA); conditions: Staphylococcus aureus; broth microdilution, 37° C., 20 hours; read-out: MIC NRS 384 (MRSA)
Source text: (§1) Bacteria tested are Staphylococcus aureus NRS384 (a methicillin-resistant Staphylococcus aureus, MRSA), Staphylococcus aureus ATCC 29213 (a methicillin-sensitive Staphylococcus aureus, MSSA), Streptococcus pneumoniae ATCC 49619, Enterococcus faecalis ATCC 29212, Enterococcus faecium ATCC 700221 (a vancomycin-resistant enterococcus, VRE), Bacillus subtilis ATCC 6633, and Escherichia coli ATCC 25922.
(§2) Staphylococcus aureus NRS384 was obtained from NARSA (Network on Antimicrobial Resistance in Staphylococcus aureus, now the strain collection is in BEI resources). Other bacterial isolates were from ATCC (The American Type Culture Collection). Upon receiving the bacteria samples from aforementioned institutes, the bacteria were cultured according to the manuals provided by the suppliers. The bacteria were stored in 25% glycerol (final concentration) at −80° C.
(§3) On the day of testing, the compounds were dissolved in pure DMSO (Sigma 276855-1L) to […] as stock. In a v-bottom 96-well plate (Axygen-wipp02280), 20 μl DMSO was added into well 2 to well 12 by manual pipetting. Into well 1, 12.8 μL of compound DMSO stock (20 mg/ml) was added and mixed with 27.2 μl DMSO by pipetting. Two fold serial dilutions were performed by transferring and mixing 20 μl of solution from well 1 to well 2, then well 2 to well 3 and so forth until well 11. The well 12 was loaded with 20 μl DMSO without compounds. This was drug ‘mother plate’. From well 1 to well 12, the drug concentrations in the mother plate were […] in DMSO. A multi-pipette was used to perform the serial dilutions. The concentration may be adjusted according to the potency of the compounds. An Echo® Acoustic liquid handling system may be used to replace manual pipetting to make the daughter plates.
(§4) One day prior to the day of MIC testing, bacterial strains were streaked out from −80° C. glycerol stocks onto MHA plates and incubated at 37° C. for 20 hours. Streptococcus pneumoniae was streaked on blood agar and incubated at 37° C. in 5% CO2. The single colonies were picked by using an inoculation loop (Greiner-731175) and suspended into 5 ml sterile saline. The turbidity of the suspension was adjusted to 0.10 (Siemens MicroScan turbidity meter), equal to ˜1.0×10^8 cfu/ml. The bacterial suspension was diluted 200× in corresponding test medium (Table 1). This was used to inoculate daughter plates.
(§5) For preparing u-bottom 96-well ‘daughter plates’ (Costar 3788), an aliquot of 1 μl solution from mother plate was then replicating transferred into the daughter plate using a multi-pipette.
(§6) An aliquot of 99 μl of the bacterial suspension was inoculated into each well of the daughter plates using a multi-pipette. Each well contained ˜5.0×10^5 cfu/ml bacteria, 1% DMSO and serially diluted compounds at 64, 32, 16, 8, 4, 2, 1, 0.5, 0.25, 0.125, 0.0625 and 0 μg/ml from well 1 to well 12 respectively, in 100 μl corresponding test medium.
(§7) The plates were incubated in ambient atmosphere and in a 37° C. incubator for 20 hours.
(§8) Compounds of the present invention were tested for antibacterial activity against a variety of bacterial organism including Bacillus subtilis, Staphylococcus aureus, Enterococcus faecalis, Enterococcus faecium, Streptococcus pneumoniae and Escherichia coli. […] Compounds described in Examples 2, 44, 53, 56, 90, 134, 212, 213, 214, 218, 222, 304, 305, and 307 had MIC of ≤1 μg/ml against S. aureus NRS 384 (MRSA) (μg/ml) and E. faecium ATCC 700221 (VRE) (μg/ml).

[2] = system: Staphylococcus aureus ATCC 29213 (MSSA); test: Broth microdilution MIC, S. aureus ATCC 29213 (MSSA); conditions: broth microdilution, 37° C., 20 hours, read-out: MIC S. aureus ATCC 29213 (MSSA)
Source text: as §1, §2, §3, §4, §5, §6, §7, §8

[3] = system: Enterococcus faecalis ATCC 29212; test: Broth microdilution MIC, E. faecalis ATCC 29212; conditions: ATCC29212, broth microdilution, 37° C., 20 hours, read-out: MIC E. faecalis ATCC 29212
Source text: as §1, §2, §3, §4, §5, §6, §7, §8

[4] = system: Enterococcus faecium ATCC 700221 (VRE); test: Broth microdilution MIC, E. faecium ATCC 700221 (VRE); conditions: Enterococcus faecium; broth microdilution, 37° C., 20 hours; read-out: MIC E. faecium ATCC 700221 (VRE)
Source text: as §1, §2, §3, §4, §5, §6, §7, §8

[5] = system: Streptococcus pneumoniae ATCC 49619; test: Broth microdilution MIC, S. pneumoniae ATCC 49619; conditions: ATCC49619, broth microdilution, 37° C., 20 hours, read-out: MIC S. pneumoniae ATCC 49619
Source text: as §1, §2, §3, §4, §5, §6, §7, §8

[6] = system: Bacillus subtilis ATCC 6633; test: Broth microdilution MIC, B. subtilis ATCC 6633; conditions: ATCC6633, broth microdilution, 37° C., 20 hours, read-out: MIC B. subtilis ATCC 6633
Source text: as §1, §2, §3, §4, §5, §6, §7, §8

[7] = system: Escherichia coli ATCC 25922; test: Broth microdilution MIC, E. coli ATCC 25922 (MHIIB w & w/o 4 mM EDTA); conditions: broth microdilution, 37° C., 20 hours; for MIC: Escherichia coli, ATCC25922, without EDTA, read-out: MIC E. coli ATCC 25922; for MIC E. coli ATCC 25922 + 4 mM EDTA: with 4 mM EDTA
Source text: as §1, §2, §3, §4, §5, §6, §7, §8

Q: For `Cn1ncc2nc(NCc3cnccn3)[nH]c(=O)c21` [Compound 12, 1-Methyl-5-((pyrazin-2-ylmethyl)amino)-1H-pyrazolo[4,3-d]pyrimidin-7(6H)-one], which MIC [1] is on record?
A: Its MIC is greater than 64 µg/mL.

Q: And the MIC [2]?
A: The MIC was greater than 64 µg/mL.

Q: And the MIC [3]?
A: Its MIC is greater than 64 µg/mL.

Q: What about the MIC [4] of the same compound?
A: The MIC was greater than 64 µg/mL.

Q: What about the MIC [5] of the same compound?
A: The MIC was greater than 64 µg/mL.

Q: And the MIC [6]?
A: The MIC was greater than 64 µg/mL.

Q: What about the MIC [7] of the same compound?
A: Its MIC is greater than 64 µg/mL.

Q: What about the “MIC E. coli ATCC 25922 + 4 mM EDTA” value [7] of the same compound?
A: The value was greater than 64 µg/mL.

Q: Which MIC [1] does the source give for `Cn1ncc2nc(NCc3ccc4[nH]ncc4c3)[nH]c(=O)c21` [Compound 13, 5-(((1H-indazol-5-yl)methyl)amino)-1-methyl-1H-pyrazolo[4,3-d]pyrimidin-7(6H)-one] here?
A: Its MIC is greater than 64 µg/mL.

Q: What about the MIC [2] of the same compound?
A: Its MIC is greater than 64 µg/mL.

Q: And the MIC [3]?
A: Its MIC is greater than 64 µg/mL.

Q: What about the MIC [4] of the same compound?
A: Its MIC is greater than 64 µg/mL.

Q: What about the MIC [5] of the same compound?
A: Its MIC is greater than 64 µg/mL.

Q: And the MIC [6]?
A: The MIC was greater than 64 µg/mL.

Q: What about the MIC [7] of the same compound?
A: Its MIC is greater than 64 µg/mL.

Q: And the “MIC E. coli ATCC 25922 + 4 mM EDTA” value [7]?
A: Its value is greater than 64 µg/mL.

Q: What does the source list for `Cn1ncc2nc(NCc3ccc4[nH]ccc4c3)[nH]c(=O)c21` [Compound 14, 5-(((1H-indol-5-yl)methyl)amino)-1-methyl-1H-pyrazolo[4,3-d]pyrimidin-7(6H)-one]?
A: MIC [1]: > 64 µg/mL; MIC [2]: > 64 µg/mL; MIC [3]: > 64 µg/mL; MIC [4]: > 64 µg/mL; MIC [5]: > 64 µg/mL; MIC [6]: > 64 µg/mL; MIC [7]: > 64 µg/mL; MIC E. coli ATCC 25922 + 4 mM EDTA [7]: >64 µg/mL

Q: With `Cn1ncc2nc(NCc3cscn3)[nH]c(=O)c21` [Compound 15, 1-Methyl-5-((thiazol-4-ylmethyl)amino)-1H-pyrazolo[4,3-d]pyrimidin-7(6H)-one] as the compound, how does the MIC [1] read?
A: The MIC was greater than 64 µg/mL.

Q: What about the MIC [2] of the same compound?
A: Its MIC is greater than 64 µg/mL.

Q: And the MIC [3]?
A: Its MIC is greater than 64 µg/mL.

Q: What about the MIC [4] of the same compound?
A: The MIC was greater than 64 µg/mL.

Q: And the MIC [5]?
A: The MIC was greater than 64 µg/mL.

Q: And the MIC [6]?
A: Its MIC is greater than 64 µg/mL.

Q: What about the MIC [7] of the same compound?
A: The MIC was greater than 64 µg/mL.

Q: And the “MIC E. coli ATCC 25922 + 4 mM EDTA” value [7]?
A: Its value is greater than 64 µg/mL.

Q: Which MIC [1] does the source give for `Cn1ncc2nc(NCc3cc[nH]n3)[nH]c(=O)c21` [Compound 16, 5-(((1H-pyrazol-3-yl)methyl)amino)-1-methyl-1H-pyrazolo[4,3-d]pyrimidin-7(6H)-one] here?
A: Its MIC is greater than 64 µg/mL.

Q: And the MIC [2]?
A: The MIC was greater than 64 µg/mL.

Q: And the MIC [3]?
A: Its MIC is greater than 64 µg/mL.

Q: What about the MIC [4] of the same compound?
A: Its MIC is greater than 64 µg/mL.

Q: What about the MIC [5] of the same compound?
A: Its MIC is greater than 64 µg/mL.

Q: And the MIC [6]?
A: The MIC was greater than 64 µg/mL.

Q: What about the MIC [7] of the same compound?
A: The MIC was greater than 64 µg/mL.

Q: And the “MIC E. coli ATCC 25922 + 4 mM EDTA” value [7]?
A: The value was greater than 64 µg/mL.

Q: Which MIC [1] does the source give for `Cn1ncc2nc(NCc3cn[nH]n3)[nH]c(=O)c21` [Compound 17, 5-(((2H-1,2,3-triazol-4-yl)methyl)amino)-1-methyl-1H-pyrazolo[4,3-d]pyrimidin-7(6H)-one] here?
A: The MIC was greater than 64 µg/mL.

Q: What about the MIC [2] of the same compound?
A: Its MIC is greater than 64 µg/mL.

Q: What about the MIC [3] of the same compound?
A: The MIC was greater than 64 µg/mL.

Q: And the MIC [4]?
A: Its MIC is greater than 64 µg/mL.

Q: And the MIC [5]?
A: Its MIC is greater than 64 µg/mL.

Q: And the MIC [6]?
A: The MIC was greater than 64 µg/mL.

Q: And the MIC [7]?
A: The MIC was greater than 64 µg/mL.

Q: What about the “MIC E. coli ATCC 25922 + 4 mM EDTA” value [7] of the same compound?
A: Its value is greater than 64 µg/mL.

Q: Which MIC [1] does the source give for `Cn1ncc2nc(NCc3nc4ccccc4s3)[nH]c(=O)c21` [Compound 18, 5-((Benzo[d]thiazol-2-ylmethyl)amino)-1-methyl-1H-pyrazolo[4,3-d]pyrimidin-7(6H)-one] here?
A: The MIC was greater than 64 µg/mL.

Q: What about the MIC [2] of the same compound?
A: Its MIC is greater than 64 µg/mL.

Q: What about the MIC [3] of the same compound?
A: The MIC was greater than 64 µg/mL.

Q: What about the MIC [4] of the same compound?
A: The MIC was greater than 64 µg/mL.

Q: What about the MIC [5] of the same compound?
A: Its MIC is greater than 64 µg/mL.

Q: What about the MIC [6] of the same compound?
A: The MIC was greater than 64 µg/mL.

Q: What about the MIC [7] of the same compound?
A: The MIC was greater than 64 µg/mL.

Q: And the “MIC E. coli ATCC 25922 + 4 mM EDTA” value [7]?
A: Its value is greater than 64 µg/mL.

Q: Which results are given for `Cn1ncc2nc(NCc3ccc4[nH]cnc4c3)[nH]c(=O)c21` [Compound 19, 5-(((1H-benzo[d]imidazol-5-yl)methyl)amino)-1-methyl-1H-pyrazolo[4,3-d]pyrimidin-7(6H)-one]?
A: MIC [1]: > 64 µg/mL; MIC [2]: > 64 µg/mL; MIC [3]: > 64 µg/mL; MIC [4]: > 64 µg/mL; MIC [5]: > 64 µg/mL; MIC [6]: > 64 µg/mL; MIC [7]: > 64 µg/mL; MIC E. coli ATCC 25922 + 4 mM EDTA [7]: >64 µg/mL

Reference: patent US10723741B1, “DNA polymerase IIIC inhibitors and use thereof” (Acurx Pharmaceuticals, LLC, priority 2018, dated 2020)
